Where two headings read alike, the source gives them in different places.
What was measured:
[1] = biological target: T1, PI3Kδ (Homo sapiens, UniProt O00329); assay: Enzymatic activity of PI3K isoforms, TR-FRET assay (PIP3 formation); format: biochemical
T1 construct: made in house
Procedure, shortened: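 Recombinant heterodimeric class I PI3K; PIP3 product measured by TR-FRET competition with labelled PIP3 for Eu-GRP-1 PH domain. Reaction 30 min at 25 °C, stopped with 10 mM EDTA.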

[2] = test system: basophils; assay: Basophil activation in human whole blood (Flow2 CAST kit, CD63 positive cells); format: cell-based; conditions: basophils activated with anti-FcεRI mAb or fMLP, geometric mean
Procedure, shortened: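 Human whole blood (K2-EDTA) preincubated 60 minutes at 37° C with compound serial dilutions or DMSO (0.3% final), then stimulated with anti-FcεRI mAb or fMLP and stained for CD63/CCR3. Percent CD63+ among ≥200 CCR3-high basophils by flow cytometry, normalized to stimulated vehicle as 100%. EC50 from four-parameter fits, geometric means in nM, concentrations corrected for reagent dilution.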

[3] = Hepatocyte stability, 1% final DMSO, 2 μM substrate (t1/2^a); format: in vitro ADME; conditions: human, cryopreserved hepatocytes, TA with 1% final DMSO, 2 μM substrate, samples at 0, 1, 2, 4 hours; read-out: human hepatocyte t½^a
Procedure: This assay was used to evaluate the metabolic stability of test articles (TA) following incubation in cryopreserved hepatocytes by monitoring parent drug disappearance via […]. The TA with 1% final DMSO concentration was incubated with 1 million hepatocytes/ml at 2 μM substrate in duplicate. The incubation was carried out at 37° C. with 5% CO2 and saturating humidity.

[4] = Hepatocyte stability, 0.01% final DMSO, 1 μM substrate (t1/2^b); format: in vitro ADME; conditions: human, hepatocytes, TA with 0.01% final DMSO, 1 μM substrate, samples at 0, 1, 3, 6 hours; read-out: human hepatocyte t½^b
Procedure: Alternatively, assay reagents and/or conditions can be modified in determining the inhibitory activities to PI3K isomers. In additional studies, similar assay using TA and 0.01% final DMSO concentration were incubated with 1 million hepatocytes/mL at 1 μM substrate in duplicate. The incubation was carried out at 37° C. with 5% CO2 and saturating humidity.

[5] = PI3Kδ, TR-FRET, 2×Km ATP, 10 μM PIP2, read-out: IC50

T1 sequence (O00329 whole entry, canonical isoform): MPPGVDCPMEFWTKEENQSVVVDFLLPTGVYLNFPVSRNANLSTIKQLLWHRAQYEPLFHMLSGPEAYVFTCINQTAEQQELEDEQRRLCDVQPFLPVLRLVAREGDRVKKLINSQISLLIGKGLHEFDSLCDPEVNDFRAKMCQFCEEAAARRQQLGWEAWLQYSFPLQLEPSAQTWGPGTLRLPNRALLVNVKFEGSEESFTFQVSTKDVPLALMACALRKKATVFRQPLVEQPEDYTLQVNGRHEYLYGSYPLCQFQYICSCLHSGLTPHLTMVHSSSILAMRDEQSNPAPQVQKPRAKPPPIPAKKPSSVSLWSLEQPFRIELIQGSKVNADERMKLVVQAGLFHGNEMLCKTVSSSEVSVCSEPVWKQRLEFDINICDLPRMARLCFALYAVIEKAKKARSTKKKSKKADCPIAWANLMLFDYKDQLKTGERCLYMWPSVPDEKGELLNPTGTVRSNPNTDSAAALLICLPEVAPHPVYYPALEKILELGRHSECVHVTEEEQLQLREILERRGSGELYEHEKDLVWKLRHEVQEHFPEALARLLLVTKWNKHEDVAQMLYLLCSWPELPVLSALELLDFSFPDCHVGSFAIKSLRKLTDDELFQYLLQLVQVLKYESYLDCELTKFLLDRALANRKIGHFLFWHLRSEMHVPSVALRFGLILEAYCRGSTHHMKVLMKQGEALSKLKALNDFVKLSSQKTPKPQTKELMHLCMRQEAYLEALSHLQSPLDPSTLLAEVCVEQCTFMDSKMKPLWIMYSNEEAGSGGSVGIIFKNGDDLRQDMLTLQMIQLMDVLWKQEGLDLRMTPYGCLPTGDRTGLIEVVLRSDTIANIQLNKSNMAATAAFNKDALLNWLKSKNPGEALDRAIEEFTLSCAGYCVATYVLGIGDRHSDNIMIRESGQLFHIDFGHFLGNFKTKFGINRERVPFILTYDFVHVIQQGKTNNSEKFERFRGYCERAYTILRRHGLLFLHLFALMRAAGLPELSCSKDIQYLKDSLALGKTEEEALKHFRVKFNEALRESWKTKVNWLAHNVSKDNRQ
T1 sequence (P27986 whole entry partner, canonical isoform): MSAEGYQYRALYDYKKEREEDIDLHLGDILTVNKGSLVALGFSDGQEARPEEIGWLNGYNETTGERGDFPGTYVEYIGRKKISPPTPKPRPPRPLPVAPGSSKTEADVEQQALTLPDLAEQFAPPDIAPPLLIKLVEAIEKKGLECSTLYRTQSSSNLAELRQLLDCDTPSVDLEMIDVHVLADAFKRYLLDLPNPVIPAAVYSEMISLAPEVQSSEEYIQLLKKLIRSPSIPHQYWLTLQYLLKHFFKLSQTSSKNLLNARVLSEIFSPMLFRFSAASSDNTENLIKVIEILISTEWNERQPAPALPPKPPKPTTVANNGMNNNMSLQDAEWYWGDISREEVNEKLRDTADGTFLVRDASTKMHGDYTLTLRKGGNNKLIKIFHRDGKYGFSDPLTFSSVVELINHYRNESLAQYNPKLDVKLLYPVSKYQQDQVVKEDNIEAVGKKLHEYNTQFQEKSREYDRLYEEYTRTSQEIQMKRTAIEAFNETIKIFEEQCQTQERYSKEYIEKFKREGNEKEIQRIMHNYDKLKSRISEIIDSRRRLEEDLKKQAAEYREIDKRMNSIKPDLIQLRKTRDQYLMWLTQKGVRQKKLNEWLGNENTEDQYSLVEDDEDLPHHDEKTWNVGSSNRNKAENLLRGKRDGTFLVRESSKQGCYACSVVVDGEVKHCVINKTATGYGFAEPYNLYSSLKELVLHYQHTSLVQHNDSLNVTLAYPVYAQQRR

Row | SMILES | IC50 [1, 5] [nM] | EC50 ([2]; Homo sapiens) [nM] | half-life at 2 μM [3] [min] | IC50 [1] [nM] | half-life at 1 μM [4] [min] | EC50 [2] [nM]
1 | CC(Nc1nc(N)nc(N)c1C#N)c1nc2cccc(F)c2c(=O)n1-c1cccc(C(F)(F)F)c1 (single isomer, unassigned) [Compound 40a] | 1 to 10 | 1 to 10 | 360 to 600 |  |  | 
2 | Cc1ccc(Cl)c2c(=O)n(-c3ccccc3)c(C(C)Nc3nc(N)nc(N)c3C#N)nc12 (single isomer, unassigned) [Compound 4a] | < 1 | 1 to 10 | 360 to 600 |  |  | 
3 | CC(Nc1nc(N)nc(N)c1C#N)c1nc2cccc(Cl)c2c(=O)n1-c1cc(Cl)cc(Cl)c1 (single isomer, unassigned) [Compound 41a] | 1 to 10 | 10 to 50 | 180 to 360 |  |  | 
4 | CCC(Nc1nc(N)nc(N)c1C#N)c1nc2c(C)cccc2c(=O)n1-c1cc(F)cc(F)c1 (single isomer, unassigned) [Compound 76a] | 10 to 50 | > 50 | > 600 |  |  | 
5 | CC(Nc1nc(N)nc(N)c1Cl)c1nc2cccc(Cl)c2c(=O)n1-c1ccccc1 (single isomer, unassigned) [Compound 104a] |  | 1 to 10 | 180 to 360 | < 1 |  | 
6 | Cc1ccc(F)c2c(=O)n(-c3cc(F)cc(F)c3)c(C(C)Nc3nc(N)nc(N)c3C#N)nc12 (single isomer, unassigned) [Compound 35a] | 1 to 10 | 1 to 10 | 360 to 600 |  |  | 
7 | CCC(Nc1nc(N)nc(N)c1C#N)c1nc2c(Cl)cccc2c(=O)n1-c1cc(F)cc(F)c1 (single isomer, unassigned) [Compound 72a] | 10 to 50 | > 50 | 360 to 600 |  |  | 
8 | COc1cc(OC)cc(-n2c(C(C)Nc3nc(N)nc(N)c3C#N)nc3cccc(Cl)c3c2=O)c1 (single isomer, unassigned) [Compound 51a] | 1 to 10 | 1 to 10 | 180 to 360 |  |  | 
9 | CC(Nc1nc(N)nc(N)c1C#N)c1nc2c(F)ccc(Cl)c2c(=O)n1-c1cc(F)cc(C#N)c1 (single isomer, unassigned) [Compound 48a] | 10 to 50 | > 50 | > 600 |  |  | 
10 | Cc1ccc(Cl)c2c(=O)n(-c3cccc(Cl)c3)c(C(C)Nc3nc(N)nc(N)c3C#N)nc12 (single isomer, unassigned) [Compound 5a] | < 1 | 1 to 10 | 60 to 180 |  |  | 
11 | CC(C)CC(Nc1nc(N)nc(N)c1C#N)c1nc2cccc(Cl)c2c(=O)n1-c1cc(F)cc(F)c1 (single isomer, unassigned) [Compound 163a] | 1 to 10 | > 50 | 60 to 180 |  |  | 
12 | Cc1cccc2nc(C(C)Nc3nc(N)nc(N)c3C#N)n(-c3cc(F)cc(F)c3)c(=O)c12 (single isomer, unassigned) [Compound 18a] | < 1 | < 1 | 180 to 360 |  |  | 
13 | CC(Nc1nc(N)nc(N)c1C#N)c1nc2cccc(Cl)c2c(=O)n1-c1cc(F)cc(C(F)F)c1 (single isomer, unassigned) [Compound 55a] | < 1 | 1 to 10 | 360 to 600 |  |  | 
14 | Cc1ccc(F)c2nc(C(C)Nc3nc(N)nc(N)c3C#N)n(-c3cc(F)cc(C#N)c3)c(=O)c12 (single isomer, unassigned) [Compound 31a] | 1 to 10 | 1 to 10 | 360 to 600 |  |  | 
15 | COc1cc(F)cc(-n2c(C(C)Nc3nc(N)nc(N)c3C#N)nc3cccc(Cl)c3c2=O)c1 (single isomer, unassigned) [Compound 192a] | 1 to 10 | < 1 | 60 to 180 |  |  | 
16 | Cc1ccc(Cl)c2c(=O)n(-c3cc(F)cc(F)c3)c(C(C)Nc3nc(N)nc(N)c3C#N)nc12 (single isomer, unassigned) [Compound 73a] | 1 to 10 | < 1 | 180 to 360 |  |  | 

Row | SMILES | IC50 [1, 5] [nM] | EC50 ([2]; Homo sapiens) [nM] | half-life at 2 μM [3] [min] | IC50 [1] [nM] | half-life at 1 μM [4] [min] | EC50 [2] [nM]
17 | Cc1ccc(F)c2c(=O)n(-c3cccc(C#N)c3)c(C(C)Nc3nc(N)nc(N)c3C#N)nc12 (single isomer, unassigned) [Compound 82a] | 10 to 50 | > 50 | 360 to 600 |  |  | 
18 | CCC(Nc1nc(N)nc(N)c1C#N)c1nc2c(Cl)ccc(F)c2c(=O)n1-c1cc(F)cc(F)c1 (single isomer, unassigned) [Compound 102a] | 10 to 50 | 1 to 10 | 360 to 600 |  |  | 
19 | CC(Nc1nc(N)nc(N)c1C#N)c1nc2c(Cl)ccc(Cl)c2c(=O)n1-c1ccccc1 (single isomer, unassigned) [Compound 50a] | < 1 | < 1 | 360 to 600 |  |  | 
20 | CCC(Nc1nc(N)nc(N)c1C#N)c1nc2cccc(Cl)c2c(=O)n1-c1cc(F)cc(F)c1 (single isomer, unassigned) [Compound 78a] | 1 to 10 | 1 to 10 | 360 to 600 |  |  | 
21 | C[C@H](Nc1nc(N)nc(N)c1C#N)c1nc2cccc(F)c2c(=O)n1-c1cccc(C(F)F)c1 [Compound 121a, (S)-2,4-diamino-6-(1-(3-(3-(difluoromethyl)phenyl)-5-fluoro-4-oxo-3,4-dihydroquinazolin-2-yl)ethylamino)pyrimidine-5-carbonitrile] | 1 to 10 | 1 to 10 |  |  | 180 to 360 | 
22 | CC(Nc1nc(N)nc(N)c1C#N)c1nc2cccc(C(F)F)c2c(=O)n1-c1cccc(C#N)c1 (single isomer, unassigned) [Compound 63a] | 1 to 10 | 1 to 10 |  |  | > 600 | 
23 | CC(Nc1nc(N)nc(N)c1C#N)c1nc2c(F)ccc(F)c2c(=O)n1-c1cccc(C#N)c1 (single isomer, unassigned) [Compound 149a] | 10 to 50 | 1 to 10 |  |  | 360 to 600 | 
24 | CC(Nc1nc(N)nc(N)c1C#N)c1nc2c(C#N)cccc2c(=O)n1-c1cccc(C(F)F)c1 (single isomer, unassigned) [Compound 160a] | 1 to 10 | 1 to 10 |  |  | 180 to 360 | 
25 | CC(Nc1nc(N)nc(N)c1C#N)c1nc2cccc(Cl)c2c(=O)n1-c1cccc(C#N)c1 (single isomer, unassigned) [Compound 12a] | 1 to 10 | 1 to 10 |  |  | > 600 | 
26 | CC(Nc1nc(N)nc(N)c1C#N)c1nc2ccc(F)c(F)c2c(=O)n1-c1cc(F)cc(F)c1 (single isomer, unassigned) [Compound 29a] | 10 to 50 | 1 to 10 |  |  | > 600 | 
27 | CC(Nc1nc(N)nc(N)c1C#N)c1nc2ccc(F)c(Cl)c2c(=O)n1-c1cc(F)cc(F)c1 (single isomer, unassigned) [Compound 140a] | 1 to 10 | 1 to 10 |  |  | 180 to 360 | 
28 | Cc1ccc(C(F)F)cc1-n1c(C(C)Nc2nc(N)nc(N)c2C#N)nc2cccc(Cl)c2c1=O (single isomer, unassigned) [Compound 188a-2] | < 1 |  |  |  | 60 to 180 | < 1
29 | CCC(Nc1nc(N)nc(N)c1C#N)c1nc2ccc(F)cc2c(=O)n1-c1cc(F)cc(F)c1 (single isomer, unassigned) [Compound 26a] | 10 to 50 | 1 to 10 |  |  | > 600 | 
30 | CC(Nc1nc(N)nc(N)c1C#N)c1nc2cccc(C#N)c2c(=O)n1-c1cc(F)cc(F)c1 (single isomer, unassigned) [Compound 112a] | 1 to 10 | 1 to 10 |  |  | > 600 | 
31 | C[C@H](Nc1nc(N)nc(N)c1C#N)c1nc2c(C#N)cc(F)cc2c(=O)n1-c1cccc(F)c1 [Compound 154a, (S)-2-(1-((2,6-diamino-5-cyanopyrimidin-4-yl)amino)ethyl)-6-fluoro-3-(3-fluorophenyl)-4-oxo-3,4-dihydroquinazoline-8-carbonitrile] | 1 to 10 | 1 to 10 |  |  | > 600 | 

Reference: US9029384B2, “Phosphatidylinositol 3-kinase inhibitors” (Gilead Calistoga LLC, priority 2012, dated 2015)
